# Test results as given in US9862761B2, “Composition and method for preventing or treating a tauopathy” (The Board of Trustees of the University of Illinois, priority 2009, dated 2018).
# Where two headings read alike, the source gives them in different places. Square brackets hold non-standard residues; d marks the D form. Ends that are not written are not given here. pS = N[C@@H](COP(=O)(O)O)C(=O)O
# Assays:
# [1] = tested on: fast axonal transport (FAT) in isolated squid axoplasm; test: Squid axoplasm motility assays (vesicle motility); assay type: cell-based, Loligo pealii; conditions: for effect on FAT (axonal transport): perfused alone into squid axoplasm (tau 2 μM; ING-135 100 nM); for effect on retrograde FAT rates / effect on anterograde FAT rates: perfused into isolated squid axoplasm; for effect on anterograde FAT rates: 2 μM; for prevention of 6D tau-mediated anterograde FAT inhibition: co-perfused with 6D tau, okadaic acid 200 nM; for prevention of 6D tau-mediated anterograde FAT inhibition / prevention of 2-18 peptide-induced anterograde FAT inhibition: I-2 50 nM; for prevention of 2-18 peptide-induced anterograde FAT inhibition: co-perfused with 2-18 peptide
# [2] = tested on: fast axonal transport (FAT) in isolated squid axoplasm; conditions: cited from earlier work
# [3] = tested on: kinesin-1 associated with vesicles; test: Motor proteins on membrane vesicle fractions purified from squid axoplasms; conditions: 40 minutes incubation
# Experimental: After 40 minutes of incubation, axoplasms were transferred, along with perfusion buffer, to low protein binding 1.5 ml centrifuge tubes containing 200 μl of homogenization buffer (0.25 mM sucrose, 1 mM EDTA, 10 mM Hepes, pH 7.4, 1/100 protease inhibitor cocktail (Sigma), 1/200 phosphatase inhibitor cocktail set II (Calbiochem), 2 μM K252a (Calbiochem), 1 μM PKI (Upstate, Lake Placid, N.Y.)), and carefully homogenized by two passages through a 23-G syringe needle and five passages through a 27-G syringe needle using a 1-ml Hamilton pipette. Axoplasm homogenates were adjusted to 30% iodixanol by mixing 200 μl of axoplasm homogenates with 300 μl of solution D (50% (w/v) iodixanol, 10 mM MgCl2 in 250 mM sucrose). […] Samples were centrifuged at 250,000 g max for 1 hour at 4° C. in an RP55-S SORVALL rotor. Three hundred microliters containing floating vesicles were collected from immediately below the 5% iodixanol interface, and 60 μl of 6× loading sample buffer was added.
# To determine whether tau filaments induce the dissociation of kinesin-1 from cargo, “sister” axoplasms were obtained from individual animals and treated with monomeric or filamentous hTau40 (2 μM). […] After 40 minutes of incubation, axoplasmic vesicle fractions were isolated and kinesin-1 levels were evaluated with an antibody against KHCs. […]
# squid microtubules = test: Microtubule morphology at axoplasm periphery after perfusion; assay type: cell-based; conditions: 2 μM perfused into axoplasm
# Source text: Microtubule rigidity is increased when tau binds to the microtubule surface, and this effect is observable even at low, nonsaturating tau concentrations (Feigner, et al. (1997) J. Cell Biol. 138:1067-1075; Morfini, et al. (2007) supra). As an additional indicator of hTau40's ability to interact with squid microtubules, axoplasm was perfused with tau and the morphology of microtubules at the axoplasm periphery was examined.
# fyn kinase = biological target: T1, fyn kinase (Homo sapiens, UniProt P06241); test: In vitro phosphorylation of tau by fyn kinase; assay type: biochemical; conditions: compared to wild-type tau; 1 μM tau
# T1 construct: purchased Millipore
# T1 sequence (P06241 whole entry): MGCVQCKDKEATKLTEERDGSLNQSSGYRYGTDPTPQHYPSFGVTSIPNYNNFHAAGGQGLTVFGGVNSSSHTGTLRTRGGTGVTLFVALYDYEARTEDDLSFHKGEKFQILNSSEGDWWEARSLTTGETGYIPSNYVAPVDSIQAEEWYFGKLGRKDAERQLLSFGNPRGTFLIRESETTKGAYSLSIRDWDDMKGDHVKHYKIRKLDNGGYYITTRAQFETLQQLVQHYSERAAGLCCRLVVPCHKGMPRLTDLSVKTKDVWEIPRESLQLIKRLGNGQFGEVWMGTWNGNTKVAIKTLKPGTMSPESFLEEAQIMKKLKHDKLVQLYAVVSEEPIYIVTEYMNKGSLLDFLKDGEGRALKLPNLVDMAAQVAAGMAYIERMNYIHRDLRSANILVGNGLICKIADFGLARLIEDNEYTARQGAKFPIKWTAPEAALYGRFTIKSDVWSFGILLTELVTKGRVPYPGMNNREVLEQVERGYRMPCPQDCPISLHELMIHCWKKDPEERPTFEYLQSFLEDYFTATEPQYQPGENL
# Experimental: Samples were heated to 60° C. for 5 minutes and separated on 10% acrylamide gels via SDS-PAGE. The proteins were transferred to nitrocellulose membranes, blocked in 2% non-fat dry milk Tris-buffered saline (NFDM-TBS; Tris 50 mM, NaCl 150 mM, pH 7.4). The membranes were incubated in primary antibodies (R1-1:300,000 and 9G3-1:8000) overnight at 4° C. The next day, the membranes were rinsed in TBS+0.1% TWEEN 20 and then incubated in the appropriate secondary antibody (1:5000; diluted in 2% NFDM-TBS). Immunoreactivity was visualized using ECL solution and the level of reactivity was quantified by measuring the optical density of immunoreactive bands with ImageJ software (v1.41, NIH). The average pixel intensities of the main tau bands were measured. Data are expressed as the ratio of 9G3 intensity to R1 intensity (error bars—s.e.m.).
# Phosphorylation was carried out at 32° C. for […]. Samples were diluted 1:1 in 2× Laemmli buffer at 0, 10, 20, 40, and 60 minutes to stop the reaction. Samples were stored at −20° C. until used for immunoblotting.
# Fyn kinase is a non-receptor tyrosine kinase known to phosphorylate tau at Tyr18 and phosphoTyrl8 (pTyr18) and is found in tau inclusions of AD brains (Lee, et al. (2004) supra). Phosphorylation at Tyr18 by fyn kinase prevents tau-mediated inhibition of anterograde FAT in squid axoplasm.
# PP2A = PP2A (Homo sapiens, UniProt P67775); conditions: even at micromolar concentrations; cited from earlier work
# Sequence of PP2A (P67775 whole entry): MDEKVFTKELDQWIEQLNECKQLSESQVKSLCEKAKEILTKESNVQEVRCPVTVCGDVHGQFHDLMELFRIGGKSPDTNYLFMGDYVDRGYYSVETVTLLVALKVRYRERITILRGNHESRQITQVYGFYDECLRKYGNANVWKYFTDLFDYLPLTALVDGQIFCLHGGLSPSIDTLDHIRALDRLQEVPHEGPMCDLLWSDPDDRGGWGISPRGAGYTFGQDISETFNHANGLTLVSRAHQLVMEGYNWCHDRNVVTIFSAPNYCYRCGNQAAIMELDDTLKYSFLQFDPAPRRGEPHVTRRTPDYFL
# [4] = Tau polymerization with arachidonic acid, electron microscopy; assay type: physicochemical; conditions: 4 μM tau, 75 μM arachidonic acid
# Experimental: Tau polymerization was induced using AA according to known methods (King, et al. (1999) Biochemistry 38:14851-14859), except that KCl was substituted for NaCl in the polymerization buffer. […] Briefly, tau protein (4 μM) was incubated at room temperature in reaction buffer (50 mM HEPES, pH 7.6, 50 mM KCl, 5 mM DTT) in the presence of 75 μM AA (in ethanol vehicle). Samples of soluble tau were prepared for perfusion in the same manner, except that arachidonic acid was excluded from the polymerization buffer. Control mixtures containing AA but lacking tau were prepared in parallel. Final ethanol concentration in all samples was 3.8%.
# Polymerization reactions were allowed to proceed for 6 hours, fixed with 2% glutaraldehyde, spotted onto 300 mesh formvar/carbon-coated copper grids (Electron Microscopy Sciences, Hatfield, Pa.), and negatively stained with 2% uranyl acetate (King, et al. (1999) supra). […]
# To determine whether these domains are involved in FAT inhibition, two tau constructs were assayed, Δ2-18 and 1-421, containing deletions at the extreme amino- and carboxy-termini, respectively. […] Therefore, the formation of tau filaments under these experimental conditions was assessed by electron microscopic analysis.
# [5] = tested on: endogenous squid microtubules; test: Microtubule-binding (sedimentation) assay; conditions: 5 μM tau construct, squid optic lobe cytosol
# [6] = coperfused with hTau40 filaments (2 μM), SB203580 5 μM, CREBpp 0.5 mM, ING-135 100 nM, okadaic acid 100 nM, inhibitor-2 50 nM
molecule,measurement,setting,value
"KRREILSRRPpSYR (KRREILSRRP[pS]YR) [CREBpp, reference compound]",block of effects of 1-421 tau filaments on FAT,[1]; coperfused with 1-421 tau filaments,also blocked
same,block of tau filament-induced inhibition of anterograde FAT,[1]; [6],blocked
same,"effect on FAT, perfused alone",[2]; CREBpp alone in squid axoplasm,has no effect
hTau40 filaments: recombinant hTau40 polymerized into filaments with arachidonic acid,levels of dynein intermediate chain on vesicles,[3],unaffected
same,morphology of peripheral microtubules,squid microtubules,did not produce changes in microtubule morphology
same,effect on FAT (axonal transport),[1],inhibition
same,effect on retrograde FAT rates,[1],remained unaffected
same,effect on anterograde FAT rates,[1],inhibited
same,effect on anterograde FAT rates,[1]; listed as hTau40 F,significantly reduced
same,effect on anterograde FAT rates,[1]; listed as tau filaments,inhibit
"active GSK-3β: recombinant, active GSK-3β from Sigma [reference compound]",levels of dynein intermediate chain on vesicles,[3],unaffected
"C=C1[C@@H](O)[C@@H]2O[C@]3(CC[C@H](/C=C/[C@@H](C)[C@@H]4CC(C)=C[C@@]5(O[C@H](C[C@@](C)(O)C(=O)O)CC[C@H]5O)O4)O3)CC[C@H]2O[C@@H]1[C@@H](O)C[C@H](C)[C@H]1O[C@@]2(CCCCO2)CC[C@H]1C [okadaic acid, reference compound]",prevention of 6D tau-mediated anterograde FAT inhibition,[1]; ING-135 100 nM,abolished
same,prevention of 6P tau-mediated anterograde FAT inhibition,[1]; co-perfused with 6P tau,The same effect was noted
same,block of tau filament-induced inhibition of anterograde FAT,[1]; [6],blocked
same,"effect on FAT, perfused alone","[2]; okadaic acid alone, concentrations up to 1 μM",have no effect
AEPRQEFEVMEDHAGTY [2-18 peptide],effect on anterograde FAT rates,[1],induced a significant inhibition
same,effect on anterograde FAT rates,[1]; listed as PAD,inhibit
"Cn1cc(C2=C(c3coc4ccccc34)C(=O)NC2=O)c2cc(Br)ccc21 [ING-135, reference compound]",prevention of 2-18 peptide-induced anterograde FAT inhibition,[1]; ING-135 100 nM,completely prevented
same,prevention of 6D tau-mediated anterograde FAT inhibition,[1]; ING-135 100 nM,completely blocked
same,block of tau filament-induced inhibition of anterograde FAT,[1]; [6],blocked
same,effect on FAT (axonal transport),[1],had no effect
"C[S+]([O-])c1ccc(-c2nc(-c3ccncc3)c(-c3ccc(F)cc3)[nH]2)cc1 (centres unmarked) [SB203580, reference compound]",block of tau filament-induced inhibition of anterograde FAT,[1],did not block
"AT8 tau: tau with Ser199, Ser202, Thr205 mutated to glutamic acid, AT8 pseudophosphorylated mutant",effect on retrograde FAT rates,[1],unaffected
same,effect on anterograde FAT rates,[1],significantly reduced
same,maximal level of phosphorylation at Tyr18 by fyn kinase,fyn kinase,lower
same,rate of phosphorylation at Tyr18 by fyn kinase,fyn kinase,slower
inhibitor-2 [reference compound],prevention of 2-18 peptide-induced anterograde FAT inhibition,[1]; ING-135 100 nM,completely prevented
same,prevention of 6D tau-mediated anterograde FAT inhibition,[1]; ING-135 100 nM,complete prevention
same,block of tau filament-induced inhibition of anterograde FAT,[1]; [6],prevented FAT inhibition
same,effect on PP2A,PP2A,has no effect
"monomeric hTau40: full-length tau, longest isoform in adult human brain, 441 amino acids, soluble monomer",morphology of peripheral microtubules,squid microtubules,"caused peripheral microtubules to acquire a straight, rigid appearance"
same,effect on FAT (axonal transport),[1]; listed as full-length wild-type tau monomers,had no effect
same,effect on FAT (axonal transport),[1]; listed as soluble tau,does not affect
same,effect on retrograde FAT rates,[1],no effect
same,effect on anterograde FAT rates,[1],no effect
same,filament formation under axoplasm perfusion buffer conditions,[4],form morphologically indistinguishable filaments
same,sedimentation with taxol-assembled squid microtubules (supernatant vs pellet),[5],depleted from the supernatant fraction and found in association with the microtubule-enriched pellet fraction
K23: tau construct lacking both alternatively spliced N-terminal exons and all four MTBRs [reference compound],sedimentation with taxol-assembled squid microtubules (supernatant vs pellet),[5],remained in the supernatant fraction
